Active and inactive are the calls of the source.
Assays:
[1] = cytotoxicity in KRAS-transformed pancreatic duct cells, primary screen, cell-based, fluorescence, HTS (AID 431); assay type: functional; details: Homo sapiens;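 further: cell line used: HPDE-C7K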
[2] = cytotoxicity in HPDE-C7 cells, cell-based, fluorescence, HTS (AID 430); assay type: functional; details: Homo sapiens
HEK293 = experiment: inhibitors of LMP1-driven NF-kB reporter, dose response, cell-based, HEK293, luciferase, cherry-pick (AID 588343); assay type: functional; details: Homo sapiens
[3] = target: T1, Heat shock factor protein 1 (Mus musculus, UniProt P38532); experiment: inhibition of MG132-induced HSE-luciferase signal, confirmation, cell-based, NIH3T3, luminescence, dose retest (AID 2382); assay type: functional;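 further: NIH3T3 fibroblasts with HSF1-driven luciferase reporter stressed by proteasome inhibitor MG132; luminescence from HSF1-driven luciferase expression after 8 hours of MG132 stress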
T1 sequence (P38532 whole entry): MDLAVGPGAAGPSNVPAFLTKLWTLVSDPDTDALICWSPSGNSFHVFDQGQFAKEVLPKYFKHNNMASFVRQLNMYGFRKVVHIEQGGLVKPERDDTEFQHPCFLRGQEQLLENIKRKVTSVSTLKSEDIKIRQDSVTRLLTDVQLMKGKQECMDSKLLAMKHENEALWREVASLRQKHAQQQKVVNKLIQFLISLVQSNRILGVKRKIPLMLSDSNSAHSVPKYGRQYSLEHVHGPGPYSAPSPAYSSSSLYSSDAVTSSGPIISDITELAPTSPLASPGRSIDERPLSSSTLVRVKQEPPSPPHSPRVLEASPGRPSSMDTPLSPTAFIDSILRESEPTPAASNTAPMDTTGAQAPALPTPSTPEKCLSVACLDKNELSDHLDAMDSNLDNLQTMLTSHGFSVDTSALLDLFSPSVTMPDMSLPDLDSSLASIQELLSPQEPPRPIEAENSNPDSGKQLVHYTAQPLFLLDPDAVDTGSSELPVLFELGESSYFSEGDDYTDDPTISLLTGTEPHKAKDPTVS

[4] = target: Peroxisome proliferator-activated receptor gamma/Nuclear receptor coactivator 1 (Homo sapiens, UniProt P37231); assay type: functional;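 further: agonist potency as compounds enhance coactivator SRC-1 recruitment to PPARgamma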
[5] = target: Peroxisome proliferator-activated receptor gamma/Nuclear receptor coactivator 2 (Homo sapiens, UniProt P37231); assay type: functional;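 further: agonist potency for raising coactivator recruitment to the receptor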
[6] = target: Peroxisome proliferator-activated receptor gamma/Nuclear receptor coactivator 3 (Homo sapiens, UniProt P37231); assay type: functional;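 further: agonist potency for raising coactivator recruitment to the receptor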
[7] = target: T2, Rac GTPase-activating protein 1 (Homo sapiens, UniProt Q9H0H5); experiment: MgcRacGAP GTPase-activating activity inhibitors, confirmation, biochemical, ADP Hunter fluorescence, primary and confirmatory (AID 624330); assay type: functional
T2 sequence (Q9H0H5 whole entry): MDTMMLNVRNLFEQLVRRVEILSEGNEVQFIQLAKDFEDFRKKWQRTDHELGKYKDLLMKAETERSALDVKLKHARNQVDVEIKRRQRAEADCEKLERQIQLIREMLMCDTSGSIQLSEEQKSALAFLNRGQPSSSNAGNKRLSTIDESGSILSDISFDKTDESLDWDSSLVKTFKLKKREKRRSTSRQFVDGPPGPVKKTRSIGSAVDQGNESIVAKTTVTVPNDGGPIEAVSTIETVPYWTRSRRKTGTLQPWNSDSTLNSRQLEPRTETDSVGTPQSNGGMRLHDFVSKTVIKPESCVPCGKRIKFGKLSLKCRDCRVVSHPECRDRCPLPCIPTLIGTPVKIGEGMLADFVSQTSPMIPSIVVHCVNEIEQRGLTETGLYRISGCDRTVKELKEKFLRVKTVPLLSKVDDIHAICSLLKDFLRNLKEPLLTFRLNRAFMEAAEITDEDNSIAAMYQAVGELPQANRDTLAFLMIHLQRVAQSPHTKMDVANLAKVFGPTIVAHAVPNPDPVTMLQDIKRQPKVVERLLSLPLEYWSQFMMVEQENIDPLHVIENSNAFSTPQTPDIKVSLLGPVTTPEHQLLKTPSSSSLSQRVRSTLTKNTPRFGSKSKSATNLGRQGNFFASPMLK

NADPH oxidase 1 = target: T3, NADPH oxidase 1 (Homo sapiens, UniProt Q9Y5S8); assay type: functional, cell-based;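 further: Cell-based assay with luminescence read-out, IC50 derived from inhibitor dose-response curves; intracellular ROS from endogenous NOX1 in intact HT29 colon cancer cells; potency of inhibitors that lower the ROS luminescence signal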
T3 sequence (Q9Y5S8 whole entry): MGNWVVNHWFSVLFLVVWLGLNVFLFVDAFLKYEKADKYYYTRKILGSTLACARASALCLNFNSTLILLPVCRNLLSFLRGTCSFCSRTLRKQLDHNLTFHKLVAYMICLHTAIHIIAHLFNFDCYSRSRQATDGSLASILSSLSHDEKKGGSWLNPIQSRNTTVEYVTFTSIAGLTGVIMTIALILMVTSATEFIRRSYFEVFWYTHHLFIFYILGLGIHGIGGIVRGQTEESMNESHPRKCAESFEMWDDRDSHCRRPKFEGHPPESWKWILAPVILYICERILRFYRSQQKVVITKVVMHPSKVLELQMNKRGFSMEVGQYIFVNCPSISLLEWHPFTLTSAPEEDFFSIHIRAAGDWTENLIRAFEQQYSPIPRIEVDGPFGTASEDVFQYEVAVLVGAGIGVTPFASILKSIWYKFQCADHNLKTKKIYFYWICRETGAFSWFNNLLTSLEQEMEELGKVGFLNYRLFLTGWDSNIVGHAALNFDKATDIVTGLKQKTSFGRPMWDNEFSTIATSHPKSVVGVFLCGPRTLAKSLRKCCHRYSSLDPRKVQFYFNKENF

Estrogen receptor = target: T4, Estrogen receptor (Homo sapiens, UniProt P03372);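 further: potency for inhibiting coactivator peptide recruitment to the receptor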
T4 sequence (P03372 whole entry): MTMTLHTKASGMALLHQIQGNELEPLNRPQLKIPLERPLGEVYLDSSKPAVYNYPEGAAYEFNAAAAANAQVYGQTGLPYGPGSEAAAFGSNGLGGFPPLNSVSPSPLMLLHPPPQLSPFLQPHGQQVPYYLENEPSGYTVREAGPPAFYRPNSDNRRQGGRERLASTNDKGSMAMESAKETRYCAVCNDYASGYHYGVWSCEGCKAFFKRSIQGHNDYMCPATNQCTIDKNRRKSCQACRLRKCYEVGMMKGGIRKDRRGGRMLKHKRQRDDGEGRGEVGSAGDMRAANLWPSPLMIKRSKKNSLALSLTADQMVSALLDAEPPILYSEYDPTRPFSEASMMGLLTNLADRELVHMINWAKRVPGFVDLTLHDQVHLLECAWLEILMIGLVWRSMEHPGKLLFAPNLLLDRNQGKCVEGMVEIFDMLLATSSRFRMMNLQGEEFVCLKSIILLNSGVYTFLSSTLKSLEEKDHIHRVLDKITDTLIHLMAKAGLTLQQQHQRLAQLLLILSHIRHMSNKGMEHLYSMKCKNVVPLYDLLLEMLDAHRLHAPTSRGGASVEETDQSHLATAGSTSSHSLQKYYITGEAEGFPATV

Estrogen receptor beta [8] = target: T5, Estrogen receptor beta (Homo sapiens, UniProt Q92731); experiment: ERβ–SRC-3 coactivator interaction inhibitors, confirmation, orthogonal assay, biochemical, ELISA, streptavidin-HRP readout (AID 1060)
Estrogen receptor beta [9] = target: T5, Estrogen receptor beta
Streptococcus = experiment: Group A Streptococcus viability loss, dose response, counter-screen for streptokinase expression inhibitor project, luminescence, BacTiterGlo (AID 1915); assay type: functional, organism-based;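 further: potency for reduction of bacterial viability or growth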
INS1 = experiment: beta cell apoptosis inhibitors, cytokine rescue, dose response, luminescence, retest (AID 449756); assay type: functional, cell-based; details: Rattus norvegicus;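 further: cell death triggered by IL-1 beta plus TNF-alpha plus IFN-gamma mixture; protective hits raise ATP signal compared with cytokine alone wells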
[10] = system: Streptococcus sp. 'group A'; experiment: growth inhibition of control SK(-) GAS strain, dose response, counter-screen for streptokinase expression inhibitor project, luminescence, kanamycin, BacTiterGlo, confirmation (AID 1900); assay type: functional, organism-based
[11] = Luminescence Cell-Based Dose Retest to Confirm Inhibitors of Cancer Stem Cells. [Related pubchem assays (depositor defined):AID2717, AID2721]; assay type: functional; details: Homo sapiens
Nonstructural protein 1 = Nonstructural protein 1 (Influenza A virus, UniProt Q194T2); assay type: functional, Influenza A virus (A/California/07/2009(H1N1))
Streptokinase A = target: T6, Streptokinase A (Streptococcus pyogenes serotype M1, UniProt P10520); experiment: S. pyogenes streptokinase expression inhibitors, potency, dose response, plasminogen activation absorbance, OD405 (AID 1914); assay type: functional, Streptococcus pyogenes M1 GAS;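 further: secreted streptokinase activity via plasminogen activation per viability signal from cell pellet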
T6 sequence (P10520 whole entry): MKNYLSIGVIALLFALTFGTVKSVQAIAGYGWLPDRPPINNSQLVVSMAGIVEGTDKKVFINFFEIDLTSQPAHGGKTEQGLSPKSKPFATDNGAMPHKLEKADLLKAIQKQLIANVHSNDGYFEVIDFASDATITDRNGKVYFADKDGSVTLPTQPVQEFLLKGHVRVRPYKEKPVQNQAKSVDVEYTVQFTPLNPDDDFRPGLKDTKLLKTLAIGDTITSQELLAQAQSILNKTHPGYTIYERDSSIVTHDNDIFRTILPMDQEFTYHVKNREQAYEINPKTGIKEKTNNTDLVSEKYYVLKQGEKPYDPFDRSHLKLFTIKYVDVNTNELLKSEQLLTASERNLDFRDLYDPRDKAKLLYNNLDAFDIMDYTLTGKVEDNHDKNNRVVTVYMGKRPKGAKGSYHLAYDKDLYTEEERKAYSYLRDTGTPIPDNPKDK

[12] = target: T7, Corticotropin-releasing factor receptor 2/Corticotropin-releasing factor-binding protein (Homo sapiens, UniProt P24387+Q13324); experiment: activators of CRF receptor 2 with binding protein – uHTS hits, confirmation (AID 602473); assay type: functional; details: read-out: EC50_Mean
T7 sequence (Q13324 whole entry): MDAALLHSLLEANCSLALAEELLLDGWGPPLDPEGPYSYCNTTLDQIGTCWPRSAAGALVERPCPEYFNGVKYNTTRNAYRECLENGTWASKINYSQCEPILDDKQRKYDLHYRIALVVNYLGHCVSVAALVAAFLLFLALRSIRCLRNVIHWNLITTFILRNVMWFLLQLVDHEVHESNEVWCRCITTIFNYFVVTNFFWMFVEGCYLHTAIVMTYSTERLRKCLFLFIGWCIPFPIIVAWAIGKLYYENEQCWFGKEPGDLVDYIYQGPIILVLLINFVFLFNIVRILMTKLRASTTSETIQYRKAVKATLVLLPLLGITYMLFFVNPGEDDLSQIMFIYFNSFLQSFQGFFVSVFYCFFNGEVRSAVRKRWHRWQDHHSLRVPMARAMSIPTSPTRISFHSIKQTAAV
T7 sequence (P24387 whole entry): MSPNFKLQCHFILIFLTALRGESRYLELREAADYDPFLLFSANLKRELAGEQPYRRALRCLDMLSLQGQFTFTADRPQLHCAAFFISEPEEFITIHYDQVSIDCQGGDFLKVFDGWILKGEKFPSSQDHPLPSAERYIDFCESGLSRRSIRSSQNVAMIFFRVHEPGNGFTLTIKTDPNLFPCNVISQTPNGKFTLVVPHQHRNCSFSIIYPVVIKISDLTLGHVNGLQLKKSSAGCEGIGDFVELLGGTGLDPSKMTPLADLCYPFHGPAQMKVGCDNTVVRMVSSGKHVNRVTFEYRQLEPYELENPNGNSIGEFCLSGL

[13] = target: T7, Corticotropin-releasing factor receptor 2/Corticotropin-releasing factor-binding protein; experiment: Dose Response confirmation of uHTS hits for small molecule antagonists of the CRF-binding protein and CRF-R2 receptor complex.; assay type: functional; details: read-out: IC50_Mean
[14] = HEp-2 cell cytotoxicity, dose response, cytotoxicity control for RSV inhibitor project, HTS (AID 2410); assay type: functional; details: human respiratory syncytial virus
[15] = CRF-BP/CRF-R2 complex antagonists, dose response, cell-based, uHTS hits, 384-well (AID 651639); assay type: functional, Homo sapiens; details: read-out: IC50_Mean

T5 sequence (Q92731 whole entry): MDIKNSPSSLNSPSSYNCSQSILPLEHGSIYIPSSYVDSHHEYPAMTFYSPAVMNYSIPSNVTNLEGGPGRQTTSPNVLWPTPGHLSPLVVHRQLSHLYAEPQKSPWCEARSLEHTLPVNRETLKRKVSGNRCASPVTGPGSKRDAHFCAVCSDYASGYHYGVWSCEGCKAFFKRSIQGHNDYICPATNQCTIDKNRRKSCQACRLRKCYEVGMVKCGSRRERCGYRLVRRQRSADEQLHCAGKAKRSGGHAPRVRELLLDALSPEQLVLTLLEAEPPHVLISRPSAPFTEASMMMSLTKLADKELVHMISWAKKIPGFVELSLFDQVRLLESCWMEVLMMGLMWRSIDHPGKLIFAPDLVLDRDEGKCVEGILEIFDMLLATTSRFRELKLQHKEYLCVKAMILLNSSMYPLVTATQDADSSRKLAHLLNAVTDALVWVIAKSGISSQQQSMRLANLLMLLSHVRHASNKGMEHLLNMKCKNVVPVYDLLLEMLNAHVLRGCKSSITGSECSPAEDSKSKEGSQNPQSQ
Sequence of Peroxisome proliferator-activated receptor gamma/Nuclear receptor coactivator 1 (P37231 whole entry): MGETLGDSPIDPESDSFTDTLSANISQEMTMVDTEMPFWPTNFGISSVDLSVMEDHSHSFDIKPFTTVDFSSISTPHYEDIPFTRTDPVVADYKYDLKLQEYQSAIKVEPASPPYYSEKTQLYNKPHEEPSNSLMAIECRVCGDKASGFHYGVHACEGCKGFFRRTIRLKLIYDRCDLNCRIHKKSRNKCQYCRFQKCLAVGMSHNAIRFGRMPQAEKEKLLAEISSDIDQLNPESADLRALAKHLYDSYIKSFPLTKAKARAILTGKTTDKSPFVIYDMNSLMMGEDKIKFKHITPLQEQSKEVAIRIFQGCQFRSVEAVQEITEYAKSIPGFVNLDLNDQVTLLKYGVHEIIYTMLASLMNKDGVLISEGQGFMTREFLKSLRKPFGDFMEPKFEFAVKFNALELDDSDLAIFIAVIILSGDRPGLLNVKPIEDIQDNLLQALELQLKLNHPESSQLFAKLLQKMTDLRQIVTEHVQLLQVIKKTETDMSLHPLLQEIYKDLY
Sequence of Peroxisome proliferator-activated receptor gamma/Nuclear receptor coactivator 1 (Q15788 whole entry, further chain): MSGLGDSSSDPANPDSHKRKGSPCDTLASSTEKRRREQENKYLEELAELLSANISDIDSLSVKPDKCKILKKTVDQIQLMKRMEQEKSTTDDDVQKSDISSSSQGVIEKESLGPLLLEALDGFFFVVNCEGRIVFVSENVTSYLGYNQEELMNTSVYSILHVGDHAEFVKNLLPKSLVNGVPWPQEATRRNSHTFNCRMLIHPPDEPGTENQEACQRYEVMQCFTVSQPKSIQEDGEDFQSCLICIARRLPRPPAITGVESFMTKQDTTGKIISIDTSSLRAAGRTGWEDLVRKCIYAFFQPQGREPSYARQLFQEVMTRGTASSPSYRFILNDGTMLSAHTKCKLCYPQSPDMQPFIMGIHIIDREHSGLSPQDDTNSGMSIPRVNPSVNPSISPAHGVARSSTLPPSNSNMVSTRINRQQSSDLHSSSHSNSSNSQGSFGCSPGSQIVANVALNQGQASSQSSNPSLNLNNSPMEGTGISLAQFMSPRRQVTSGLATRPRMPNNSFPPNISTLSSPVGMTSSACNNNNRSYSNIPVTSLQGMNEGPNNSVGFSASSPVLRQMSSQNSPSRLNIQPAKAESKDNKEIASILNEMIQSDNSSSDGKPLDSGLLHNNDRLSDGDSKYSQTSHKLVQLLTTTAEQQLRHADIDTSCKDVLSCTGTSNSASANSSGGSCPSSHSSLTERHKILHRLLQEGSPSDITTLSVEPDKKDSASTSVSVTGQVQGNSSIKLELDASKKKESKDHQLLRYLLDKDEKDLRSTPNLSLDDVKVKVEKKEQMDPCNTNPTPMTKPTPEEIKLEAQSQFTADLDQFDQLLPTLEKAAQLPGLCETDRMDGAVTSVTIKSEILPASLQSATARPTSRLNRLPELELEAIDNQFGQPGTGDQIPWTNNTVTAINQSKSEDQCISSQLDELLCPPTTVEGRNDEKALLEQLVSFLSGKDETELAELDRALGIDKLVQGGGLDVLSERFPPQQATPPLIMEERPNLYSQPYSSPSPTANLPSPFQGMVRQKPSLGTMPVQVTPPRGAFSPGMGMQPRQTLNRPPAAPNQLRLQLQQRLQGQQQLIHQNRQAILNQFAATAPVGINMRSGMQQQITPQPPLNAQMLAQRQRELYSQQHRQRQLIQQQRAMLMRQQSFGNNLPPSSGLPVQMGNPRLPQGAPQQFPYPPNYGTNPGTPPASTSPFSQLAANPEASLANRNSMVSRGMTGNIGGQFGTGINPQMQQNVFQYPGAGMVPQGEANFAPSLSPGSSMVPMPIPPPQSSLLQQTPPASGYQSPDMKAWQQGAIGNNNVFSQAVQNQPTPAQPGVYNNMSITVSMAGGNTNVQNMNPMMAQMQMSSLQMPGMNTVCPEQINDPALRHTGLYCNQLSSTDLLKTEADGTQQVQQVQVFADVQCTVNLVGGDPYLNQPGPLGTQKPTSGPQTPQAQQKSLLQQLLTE
Sequence of Peroxisome proliferator-activated receptor gamma/Nuclear receptor coactivator 2 (P37231 whole entry): as the sequence (P37231 whole entry) above
Sequence of Peroxisome proliferator-activated receptor gamma/Nuclear receptor coactivator 2 (Q15596 whole entry, further chain): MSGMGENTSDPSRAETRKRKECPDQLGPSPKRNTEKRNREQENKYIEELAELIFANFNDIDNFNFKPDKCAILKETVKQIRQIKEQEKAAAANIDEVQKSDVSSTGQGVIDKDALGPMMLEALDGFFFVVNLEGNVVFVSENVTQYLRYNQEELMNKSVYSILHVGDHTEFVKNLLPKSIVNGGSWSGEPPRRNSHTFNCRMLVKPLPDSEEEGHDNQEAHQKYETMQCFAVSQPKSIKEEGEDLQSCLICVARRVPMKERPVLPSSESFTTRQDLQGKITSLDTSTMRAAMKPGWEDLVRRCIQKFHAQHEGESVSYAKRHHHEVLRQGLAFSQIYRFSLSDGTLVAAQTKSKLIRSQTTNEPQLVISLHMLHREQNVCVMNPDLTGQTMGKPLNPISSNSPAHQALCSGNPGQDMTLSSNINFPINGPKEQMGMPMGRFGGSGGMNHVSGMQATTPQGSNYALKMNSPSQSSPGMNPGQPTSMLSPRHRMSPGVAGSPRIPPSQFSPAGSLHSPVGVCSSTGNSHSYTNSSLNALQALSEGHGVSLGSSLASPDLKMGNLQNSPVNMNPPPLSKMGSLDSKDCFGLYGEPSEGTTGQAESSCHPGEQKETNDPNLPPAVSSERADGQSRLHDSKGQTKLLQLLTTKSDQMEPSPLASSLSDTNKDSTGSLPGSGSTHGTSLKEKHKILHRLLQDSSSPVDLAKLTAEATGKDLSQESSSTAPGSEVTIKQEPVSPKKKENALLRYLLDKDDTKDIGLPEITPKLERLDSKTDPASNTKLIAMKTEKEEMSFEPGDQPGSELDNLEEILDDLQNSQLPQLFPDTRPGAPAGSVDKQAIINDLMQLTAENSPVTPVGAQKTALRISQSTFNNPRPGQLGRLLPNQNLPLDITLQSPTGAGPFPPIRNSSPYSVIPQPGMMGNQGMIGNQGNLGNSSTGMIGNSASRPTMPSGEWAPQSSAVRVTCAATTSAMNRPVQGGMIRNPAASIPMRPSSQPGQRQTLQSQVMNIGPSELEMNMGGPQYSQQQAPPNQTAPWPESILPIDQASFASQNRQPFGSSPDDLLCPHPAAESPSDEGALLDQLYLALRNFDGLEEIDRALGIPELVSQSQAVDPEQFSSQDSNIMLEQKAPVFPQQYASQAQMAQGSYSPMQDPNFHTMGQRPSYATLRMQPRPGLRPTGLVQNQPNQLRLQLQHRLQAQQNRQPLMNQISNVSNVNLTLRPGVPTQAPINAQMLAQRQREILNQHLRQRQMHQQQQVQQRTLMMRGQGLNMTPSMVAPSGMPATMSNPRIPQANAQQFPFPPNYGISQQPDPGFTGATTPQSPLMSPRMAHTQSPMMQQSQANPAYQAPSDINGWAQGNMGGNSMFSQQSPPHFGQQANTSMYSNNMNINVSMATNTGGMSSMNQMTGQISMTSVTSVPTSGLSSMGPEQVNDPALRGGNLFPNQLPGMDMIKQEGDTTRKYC
Sequence of Nonstructural protein 1 (Q194T2 whole entry): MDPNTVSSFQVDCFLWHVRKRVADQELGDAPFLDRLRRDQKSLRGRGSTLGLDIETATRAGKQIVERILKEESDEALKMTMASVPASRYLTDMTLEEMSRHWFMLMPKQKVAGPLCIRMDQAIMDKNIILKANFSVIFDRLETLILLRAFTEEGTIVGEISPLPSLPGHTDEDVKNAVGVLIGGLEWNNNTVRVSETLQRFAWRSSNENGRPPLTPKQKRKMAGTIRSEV

## Cc1nn(-c2ccccc2)c(Cl)c1C(=O)N1CCN(c2ncnc3c2cnn3-c2ccccc2)CC1
[1]
  EC50: 9.4 µM (active)
[2]
  EC50: 8.56 µM (active)
HEK293
  AC50: 5.24 µM (active)
[3]
  EC50: 5.06 µM (active)

## CCOCCCNCc1ccc(OC)c(OC)c1
[4]
  EC50: > 79.4 µM (not active)
[5]
  EC50: > 79.4 µM (not active)
[6]
  EC50: > 79.4 µM (not active)

## CCn1c(SCC(=O)Nc2ccc(N(C)C)cc2)nnc1-c1cccc(C)c1
[1]
  EC50: 15.8 µM (active)
[2]
  EC50: > 20 µM (not active)
[7]
  IC50: 65.2 µM (active)
[3]
  EC50: > 195 µM (not active)

## COc1ccc(C(=O)NCC(=O)N=Nc2c(O)n(Cc3ccccc3)c3ccccc23)cc1OC
[4]
  EC50: > 79.4 µM (not active)
[5]
  EC50: > 79.4 µM (not active)
[6]
  EC50: > 79.4 µM (not active)

## CC(=O)Nc1ccccc1OC(=O)c1sc2cc(Cl)ccc2c1Cl
NADPH oxidase 1
  IC50: > 17 µM (not active)

## COc1ccc2c(c1)c(=O)oc1cc3oc(C)c(C)c3cc12
Estrogen receptor
  IC50: 6.9 µM (active)
Estrogen receptor beta [8]
  IC50: 0.205 µM (not active)
Estrogen receptor beta [9]
  IC50: 12.6 µM (active)

## CCc1ccc2nc(O)c(C3C(C#N)=C(N)Oc4c3ccc3cccnc43)cc2c1 (stereo not drawn)
Streptococcus
  EC50: > 150 µM (not active)
INS1
  AC50: 1.46 µM (active)
Estrogen receptor
  IC50: 11.3 µM (active)
Estrogen receptor beta [8]
  IC50: 2.79 µM (not active)
[10]
  EC50: 16.1 µM (active)
[11]
  AC50: 6.07 µM (active)
Nonstructural protein 1
  IC50: 32.6 µM (active)
Estrogen receptor beta [9]
  IC50: 12 µM (active)
Streptokinase A
  EC50: > 150 µM (not active)

## Cc1ccccc1-c1nnc(S)n1/N=C/c1c(C)nn(-c2ccccc2)c1C
[12]
  EC50: > 53 µM (inactive)
cells
  IC50: 11.3 µM (active)
[13]
  IC50: 8.4 µM (active)
[14]
  CC50: 29.1 µM (active)
[15]
  IC50: 12.3 µM (active)

## COc1cccc(-c2nc(-c3ccccc3)c(-c3ccccc3)[nH]2)c1
NADPH oxidase 1
  IC50: > 17 µM (not active)
